{
  "source": "patent US11370798B2",
  "about": "(Vertex Pharmaceuticals Incorporated, priority 2012, dated 2022)",
  "data": [
    {"tested_on": "HCT116 colorectal cancer cells", "assay": "Cisplatin sensitization assay (96 h cell viability MTS);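 further: Test-compound concentration that lowers the Cisplatin IC50 by a set fold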", "format": "cell-based", "conditions": "compound and Cisplatin added simultaneously, Cisplatin sensitization value", "how_it_was_run": "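Compound and cisplatin added together as a full matrix of 2-fold serial dilutions from a top final concentration of 10 μM; cells incubated 96 h at 37° C, 5% CO2. Viability then read by MTS after 1 h further incubation; sensitization value reported in μM bins.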", "values": [
      {"compound": "Cc1ccnn1-c1ccncc1NC(=O)c1c(N)nn2cc(F)cnc12", "note": "[I-N-223, 2-amino-6-fluoro-N-(4-(5-methyl-1H-pyrazol-1-yl)pyridin-3-yl)pyrazolo[1,5-a]pyrimidine-3-carboxamide]", "Cisplatin Sensitization Assay": "++ (Cisplatin sensitization value>0.02 μM but <0.2 μM)"},
      {"compound": "CN1C[C@@H]2CCN(c3ccncc3NC(=O)c3c(N)nn4cc(F)cnc34)C[C@@H]2C1=O", "note": "[I-N-224, 2-amino-6-fluoro-N-(4-((3aR,7aR)-2-methyl-3-oxohexahydro-1H-pyrrolo[3,4-c]pyridin-5(6H)-yl)pyridin-3-yl)pyrazolo[1,5-a]pyrimidine-3-carboxamide]", "Cisplatin Sensitization Assay": "+ (Cisplatin sensitization value>0.2 μM but <5 μM)"},
      {"compound": "Cc1ccn(-c2ccncc2NC(=O)c2c(N)nn3cc(F)cnc23)n1", "note": "[I-N-225, 2-amino-6-fluoro-N-(4-(3-methyl-1H-pyrazol-1-yl)pyridin-3-yl)pyrazolo[1,5-a]pyrimidine-3-carboxamide]", "Cisplatin Sensitization Assay": "++ (Cisplatin sensitization value>0.02 μM but <0.2 μM)"},
      {"compound": "Nc1nn2cc(F)cnc2c1C(=O)Nc1cnccc1N1CCC2(CC1)COC2", "note": "[I-N-226, N-(4-(2-oxa-7-azaspiro[3.5]nonan-7-yl)pyridin-3-yl)-2-amino-6-fluoropyrazolo[1,5-a]pyrimidine-3-carboxamide]", "Cisplatin Sensitization Assay": "+++ (Cisplatin sensitization value of <0.02 μM)"},
      {"compound": "CN1CCOCC1C(=O)N1CCN(c2c(F)cncc2NC(=O)c2c(N)nn3cc(F)cnc23)CC1", "note": "(centres unmarked) [I-N-227, 2-amino-6-fluoro-N-(5-fluoro-4-(4-(4-methylmorpholine-3-carbonyl)piperazin-1-yl)pyridin-3-yl)pyrazolo[1,5-a]pyrimidine-3-carboxamide]", "Cisplatin Sensitization Assay": "+++ (Cisplatin sensitization value of <0.02 μM)"},
      {"compound": "Nc1nn2cc(F)cnc2c1C(=O)Nc1cncc(F)c1N1CCN(CC(=O)N2CCC2)CC1", "note": "[I-N-228, 2-amino-N-(4-(4-(2-(azetidin-1-yl)-2-oxoethyl)piperazin-1-yl)-5-fluoropyridin-3-yl)-6-fluoropyrazolo[1,5-a]pyrimidine-3-carboxamide]", "Cisplatin Sensitization Assay": "+++ (Cisplatin sensitization value of <0.02 μM)"},
      {"compound": "CN1CC2(CCN(c3c(F)cncc3NC(=O)c3c(N)nn4cc(F)cnc34)CC2)OC1=O", "note": "[I-N-229, 2-amino-6-fluoro-N-(5-fluoro-4-(3-methyl-2-oxo-1-oxa-3,8-diazaspiro[4.5]decan-8-yl)pyridin-3-yl)pyrazolo[1,5-a]pyrimidine-3-carboxamide]", "Cisplatin Sensitization Assay": "+++ (Cisplatin sensitization value of <0.02 μM)"},
      {"compound": "Nc1nn2cc(F)cnc2c1C(=O)Nc1cnccc1N1CCC(N2CCCC2=O)CC1", "note": "[I-N-230, 2-amino-6-fluoro-N-(4-(4-(2-oxopyrrolidin-1-yl)piperidin-1-yl)pyridin-3-yl)pyrazolo[1,5-a]pyrimidine-3-carboxamide]", "Cisplatin Sensitization Assay": "+++ (Cisplatin sensitization value of <0.02 μM)"},
      {"compound": "CN1CC2(CCC1=O)CCN(c1ccncc1NC(=O)c1c(N)nn3cc(F)cnc13)CC2", "note": "[I-N-231, 2-amino-6-fluoro-N-(4-(2-methyl-3-oxo-2,9-diazaspiro[5.5]undecan-9-yl)pyridin-3-yl)pyrazolo[1,5-a]pyrimidine-3-carboxamide]", "Cisplatin Sensitization Assay": "+++ (Cisplatin sensitization value of <0.02 μM)"},
      {"compound": "Nc1nn2cc(F)cnc2c1C(=O)Nc1cncc(F)c1N1CC(=O)N2CCCC2C1", "note": "(centres unmarked) [I-N-232, 2-amino-6-fluoro-N-(5-fluoro-4-(4-oxohexahydropyrrolo[1,2-a]pyrazin-2(1H)-yl)pyridin-3-yl)pyrazolo[1,5-a]pyrimidine-3-carboxamide]", "Cisplatin Sensitization Assay": "++ (Cisplatin sensitization value>0.02 μM but <0.2 μM)"},
      {"compound": "CN1CCN2CCN(c3ccncc3NC(=O)c3c(N)nn4cc(F)cnc34)CC2C1=O", "note": "(centres unmarked) [I-N-233, 2-amino-6-fluoro-N-(4-(8-methyl-9-oxohexahydro-1H-pyrazino[1,2-a]pyrazin-2(6H)-yl)pyridin-3-yl)pyrazolo[1,5-a]pyrimidine-3-carboxamide]", "Cisplatin Sensitization Assay": "++ (Cisplatin sensitization value>0.02 μM but <0.2 μM)"},
      {"compound": "CN(C)C(=O)C1CN(c2ccncc2NC(=O)c2c(N)nn3cc(F)cnc23)CCO1", "note": "(centres unmarked) [I-N-234, 4-(3-(2-amino-6-fluoropyrazolo[1,5-a]pyrimidine-3-carboxamido)pyridin-4-yl)-N,N-dimethylmorpholine-2-carboxamide]", "Cisplatin Sensitization Assay": "+ (Cisplatin sensitization value>0.2 μM but <5 μM)"},
      {"compound": "CN1C(=O)CCC12CCN(c1ccncc1NC(=O)c1c(N)nn3cc(F)cnc13)CC2", "note": "[I-N-235, 2-amino-6-fluoro-N-(4-(1-methyl-2-oxo-1,8-diazaspiro[4.5]decan-8-yl)pyridin-3-yl)pyrazolo[1,5-a]pyrimidine-3-carboxamide]", "Cisplatin Sensitization Assay": "++ (Cisplatin sensitization value>0.02 μM but <0.2 μM)"},
      {"compound": "CN1CC2(CCN(c3ccncc3NC(=O)c3c(N)nn4cc(F)cnc34)CC2)CC1=O", "note": "[I-N-236, 2-amino-6-fluoro-N-(4-(2-methyl-3-oxo-2,8-diazaspiro[4.5]decan-8-yl)pyridin-3-yl)pyrazolo[1,5-a]pyrimidine-3-carboxamide]", "Cisplatin Sensitization Assay": "+++ (Cisplatin sensitization value of <0.02 μM)"},
      {"compound": "Cc1cncc(NC(=O)c2c(N)nn3cc(F)cnc23)c1-n1nccc1C", "note": "[I-N-237]", "Cisplatin Sensitization Assay": "+ (Cisplatin sensitization value>0.2 μM but <5 μM)"},
      {"compound": "Nc1nn2cc(F)cnc2c1C(=O)Nc1cnccc1N1CCN2C(=O)OCC2C1", "note": "(centres unmarked) [I-N-238, 2-amino-6-fluoro-N-(4-(3-oxotetrahydro-1H-oxazolo[3,4-a]pyrazin-7(3H)-yl)pyridin-3-yl)pyrazolo[1,5-a]pyrimidine-3-carboxamide]", "Cisplatin Sensitization Assay": "++ (Cisplatin sensitization value>0.02 μM but <0.2 μM)"},
      {"compound": "Nc1nn2cc(F)cnc2c1C(=O)Nc1cncc(F)c1N1CCC2(CC1)COC2", "note": "[I-N-239, 2-amino-6-fluoro-N-(5-fluoro-4-(2-oxa-7-azaspiro[3.5]nonan-7-yl)pyridin-3-yl)pyrazolo[1,5-a]pyrimidine-3-carboxamide]", "Cisplatin Sensitization Assay": "+++ (Cisplatin sensitization value of <0.02 μM)"},
      {"compound": "CN1CCN2CCN(c3c(F)cncc3NC(=O)c3c(N)nn4cc(F)cnc34)CC2C1=O", "note": "(centres unmarked) [I-N-240, 2-amino-6-fluoro-N-(5-fluoro-4-(8-methyl-9-oxohexahydro-1H-pyrazino[1,2-a]pyrazin-2(6H)-yl)pyridin-3-yl)pyrazolo[1,5-a]pyrimidine-3-carboxamide]", "Cisplatin Sensitization Assay": "++ (Cisplatin sensitization value>0.02 μM but <0.2 μM)"},
      {"compound": "Nc1nn2cc(F)cnc2c1C(=O)Nc1cnccc1N1CCC(c2ncon2)CC1", "note": "[I-N-241, N-(4-(4-(1,2,4-oxadiazol-3-yl)piperidin-1-yl)pyridin-3-yl)-2-amino-6-fluoropyrazolo[1,5-a]pyrimidine-3-carboxamide]", "Cisplatin Sensitization Assay": "+++ (Cisplatin sensitization value of <0.02 μM)"},
      {"compound": "Cc1ncnn1-c1c(F)cncc1NC(=O)c1c(N)nn2cc(F)cnc12", "note": "[I-N-242, 2-amino-6-fluoro-N-(5-fluoro-4-(5-methyl-1H-1,2,4-triazol-1-yl)pyridin-3-yl)pyrazolo[1,5-a]pyrimidine-3-carboxamide]", "Cisplatin Sensitization Assay": "+ (Cisplatin sensitization value>0.2 μM but <5 μM)"}
    ]}
  ]
}
